Data on 16 compounds can be found in patent publication US12528826B2, “[1,4]oxazepino[2,3-c]quinolinone derivatives as BCL6 inhibitors” (Cancer Research Technology Limited, priority 2019, dated 2026).

For the first assay, the target named is T1, Trx-6×His-BCL6 (human BCL6 BTB domain covering amino-acid sequence 5-129) (Homo sapiens, UniProt P41182).
T1 construct: made in house
Description: HTRF assay (BCL6 / BCOR peptide). It counts as binding. As to conditions: 1 nM Trx-6×His-BCL6, 300 nM BCOR-AF633 peptide, 2 hours incubation at room temperature. As for the experimental part: After 2 hours incubation at room temperature the plate was read on a Pherastar FSX (BMG Labtech) plate reader equipped with 337 nm laser excitation filter, a first emission filter at 620 nm and a second emission filter at 665 nm. The % inhibition at each concentration was calculated by normalising FRET ratio to the appropriate high (DMSO with all reagents) and low (DMSO without BCL6) controls.
On the technique in general: Time-resolved FRET reads energy transfer from a long-lived donor to a nearby acceptor.
Take `C[C@H]1CN(c2ncc(Cl)c(Nc3ccc4c(c3)c3c(c(=O)n4C)OCC(F)(F)[C@H](C4CC4)N3)n2)CCC1(F)F` (single isomer, unassigned) [Example 14a, (S)-10-((5-chloro-2-((S)-4,4-difluoro-3-methylpiperidin-1-yl)pyrimidin-4-yl)amino)-2-cyclopropyl-3,3-difluoro-7-methyl-1,2,3,4-tetrahydro-[1,4]oxazepino[2,3-c]quinolin-6(7H)-one or (S)-10-((5-chloro-2-((R)-4,4-difluoro-3-methylpiperidin-1-yl)pyrimidin-4-yl)amino)-2-cyclopropyl-3,3-difluoro-7-methyl-1,2,3,4-tetrahydro-[1.4]oxazepino[2,3-c]quinolin-6(7H)-one]: the “HTRF avg pIC50” value is 7.81. Still for that read-out and setting: with “(S)-10-((5-chloro-2-((3R,5R)-3-fluoro-5-hydroxypiperidin-1-yl)pyrimidin-4-yl)amino)-2-cyclopropyl-3,3-difluoro-7-methyl-1,2,3,4-tetrahydro-[1,4]oxazepino[2,3-c]quinolin-6(7H)-one:(S)-10-((5-chloro-2-((3S,5S)-3-fluoro-5-hydroxypiperidin-1-yl)pyrimidin-4-yl)amino)-2-cyclopropyl-3,3-difluoro-7-methyl-1,2,3,4-tetrahydro-[1,4]oxazepino[2,3-c]quinolin-6(7H)-one(1:1) [Example 11g]” the figure was 8.28. Still for that read-out and setting: the figure for `Cn1c(=O)c2c(c3cc(Nc4ccnc(Cl)c4F)ccc31)N[C@@H](C1CC1)C(F)(F)CO2` [Example 4d, (S)-10-((2-chloro-3-fluoropyridin-4-yl)amino)-2-cyclopropyl-3,3-difluoro-7-methyl-1,2,3,4-tetrahydro-[1,4]oxazepino[2,3-c]quinolin-6(7H)-one] is 7.78.

Still in this assay, the particulars now being: 1 nM Trx-6×His-BCL6, 300 nM BCOR-AF633 peptide, 2 hours incubation at room temperature; read-out: HTRF avg pIC50 (converted).
With `C[C@H]1C[C@@H](O)CN(c2ncc(F)c(Nc3ccc4c(c3)c3c(c(=O)n4C)OCC(F)(F)[C@H](C4CC4)N3)n2)C1` [Example 2a, (S)-2-cyclopropyl-3,3-difluoro-10-((5-fluoro-2-((3R,5S)-3-hydroxy-5-methylpiperidin-1-yl)pyrimidin-4-yl)amino)-7-methyl-1,2,3,4-tetrahydro-[1,4]oxazepino[2,3-c]quinolin-6(7H)-one], the IC50 was 2.4 nM. The same measure, in the same setting: the figure for `Cn1c(=O)c2c(c3cc(Nc4nc(N5CCOCC5)ncc4F)ccc31)N[C@@H](C1CC1)C(F)(F)CO2` [Example 13p06, (S)-2-cyclopropyl-3,3-difluoro-10-((5-fluoro-2-morpholinopyrimidin-4-yl)amino)-7-methyl-1,2,3,4-tetrahydro-[1,4]oxazepino[2,3-c]quinolin-6(7H)-one] is 11.7 nM.

In the case of `CC1CC(CC(=O)N2CCC2)CN(c2ncc(Cl)c(Nc3ccc4c(c3)c3c(c(=O)n4C)OCC(F)(F)[C@H](C4CC4)N3)n2)C1` (single isomer, unassigned) [Example 12x16a], the IC50 is 2.04 nM. Same read-out and setting: with `Cn1c(=O)c2c(c3cc(Nc4ncncc4Cl)ccc31)N[C@@H](C1CC1)C(F)(F)CO2` [Example 6a, (S)-10-((5-chloropyrimidin-4-yl)amino)-2-cyclopropyl-3,3-difluoro-7-methyl-1,2,3,4-tetrahydro-[1,4]oxazepino[2,3-c]quinolin-6(7H)-one] the figure was 14.1 nM; with `C[C@H]1C[C@@H](CO)CN(c2ncc(Cl)c(Nc3ccc4c(c3)c3c(c(=O)n4C)OCC(F)(F)[C@H](C4CC4)N3)n2)C1` (racemic) [Example 9d, (S)-10-((5-chloro-2-((3R,5S)-3-(hydroxymethyl)-5-methylpiperidin-1-yl)pyrimidin-4-yl)amino)-2-cyclopropyl-3,3-difluoro-7-methyl-1,2,3,4-tetrahydro-[1,4]oxazepino[2,3-c]quinolin-6(7H)-one; (S)-10-((5-chloro-2-((3S,5R)-3-(hydroxymethyl)-5-methylpiperidin-1-yl)pyrimidin-4-yl)amino)-2-cyclopropyl-3,3-difluoro-7-methyl-1,2,3,4-tetrahydro-[1,4]oxazepino[2,3-c]quinolin-6(7H)-one], 4.17 nM. The same measure, in the same setting: with `Cn1c(=O)c2c(c3cc(Nc4nc(N5CCC(F)(F)C(CC(N)=O)C5)ncc4Cl)ccc31)N[C@@H](C1CC1)C(F)(F)CO2` (mixture of isomers) [Example 9g] the figure was 2.29 nM; with `CN(C)c1cc(Nc2ccc3c(c2)c2c(c(=O)n3C)OCC(F)(F)[C@H](C3CC3)N2)c(Cl)cn1` [Example 13c12, (S)-2-cyclopropyl-10-((2-(dimethylamino)-5-chloropyridin-4-yl)amino)-3,3-difluoro-7-methyl-1,2,3,4-tetrahydro-[1,4]oxazepino[2,3-c]quinolin-6(7H)-one], 19.5 nM; with `Cn1c(=O)c2c(c3cc(Nc4nc(N5CC(F)C5)ncc4Cl)ccc31)N[C@@H](C1CC1)C(F)(F)CO2` [Example 11q, (S)-10-((5-chloro-2-(3-fluoroazetidin-1-yl)pyrimidin-4-yl)amino)-2-cyclopropyl-3,3-difluoro-7-methyl-1,2,3,4-tetrahydro-[1,4]oxazepino[2,3-c]quinolin-6(7H)-one], 4.79 nM.

Turning to `COC1CCCN(c2ncc(Cl)c(Nc3ccc4c(c3)c3c(c(=O)n4C)OCC(F)(F)[C@H](C4CC4)N3)n2)C1` (mixture of isomers) [Example 10c, (S)-10-((5-chloro-2-((R)-3-methoxypiperidin-1-yl)pyrimidin-4-yl)amino)-2-cyclopropyl-3,3-difluoro-7-methyl-1,2,3,4-tetrahydro-[1,4]oxazepino[2,3-c]quinolin-6(7H)-one; (S)-10-((5-chloro-2-((S)-3-methoxypiperidin-1-yl)pyrimidin-4-yl)amino)-2-cyclopropyl-3,3-difluoro-7-methyl-1,2,3,4-tetrahydro-[1,4]oxazepino[2,3-c]quinolin-6(7H)-one], the IC50 was 5.01 nM. Consider `CN(CC(C)(C)O)c1ncc(Cl)c(Nc2ccc3c(c2)c2c(c(=O)n3C)OCC(F)(F)[C@H](C3CC3)N2)n1` [Example 9u, (S)-10-((5-chloro-2-((2-hydroxy-2-methylpropyl)(methyl)amino)pyrimidin-4-yl)amino)-2-cyclopropyl-3,3-difluoro-7-methyl-1,2,3,4-tetrahydro-[1,4]oxazepino[2,3-c]quinolin-6(7H)-one], for which the IC50 is 4.17 nM. Same read-out and setting: with `CC1CCCN(c2ncc(Cl)c(Nc3ccc4c(c3)c3c(c(=O)n4C)OCC(F)(F)[C@H](C4CC4)N3)n2)C1CO` (mixture of isomers) [Example 12x46, (2S)-10-((5-chloro-2-(2-(hydroxymethyl)-3-methylpiperidin-1-yl)pyrimidin-4-yl)amino)-2-cyclopropyl-3,3-difluoro-7-methyl-1,2,3,4-tetrahydro-[1,4]oxazepino[2,3-c]quinolin-6(7H)-one] the figure was 11.2 nM; with `CC1CC(CC(=O)N2CC(F)(F)C2)CN(c2ncc(Cl)c(Nc3ccc4c(c3)c3c(c(=O)n4C)OCC(F)(F)[C@H](C4CC4)N3)n2)C1` (single isomer, unassigned) [Example 12x17b], 13.2 nM. On the same count and under the same terms, with `Cn1c(=O)c2c(c3cc(Nc4nc(N5CCC(F)CC5)ncc4Cl)ccc31)N[C@@H](C1CC1)C(F)(F)CO2` [Example 12x42, (S)-10-((5-chloro-2-(4-fluoropiperidin-1-yl)pyrimidin-4-yl)amino)-2-cyclopropyl-3,3-difluoro-7-methyl-1,2,3,4-tetrahydro-[1,4]oxazepino[2,3-c]quinolin-6(7H)-one] the figure was 6.17 nM.
